Source: ChEMBL document CHEMBL1275499, “Glycogen synthase kinase 3 is a potential drug target for African trypanosomiasis therapy” (Antimicrob Agents Chemother, 2008)

Key:
[1] = Inhibition of Trypanosoma brucei recombinant MBP-fused GSK-3 short isoform expressed in Escherichia coli by scintillation proximity assay
Trypanosoma brucei = assay: microbe, parasite or virus in culture; assay type: functional, organism-based; details: Trypanosoma brucei, 427, 48 h
Description: Antitrypanosomal activity against blood stream form of Trypanosoma brucei 427 assessed as growth inhibition after 48 hrs by alamar blue assay

SMILES | IC50 [1] [nM] | EC50 (Trypanosoma brucei) [nM]
O=C1Nc2ccc3ncsc3c2/C1=C/Nc1ccc(S(=O)(=O)Nc2ccccn2)cc1 | 1 | 119
Nc1nc(Nc2cccc(S(N)(=O)=O)c2)nn1C(=S)Nc1c(F)cccc1F | 13 | 20
CN(C)CCCC(=O)Nc1nccc(/C(C#N)=C2\NC(C(C)(C)C)=CS2)n1 | 4 | 50
CN1CCC(C(=O)Nc2nccc(/C(C#N)=C3\NC(C(C)(C)C)=CS3)n2)CC1 | 30 | 65
CC(C)(C)C1=CS/C(=C(\C#N)c2ccnc(NC(=O)C3CCNCC3)n2)N1 | 46 | 200
CC(=O)N1CCC(C(=O)Nc2nccc(/C(C#N)=C3\NC(C(C)(C)C)=CS3)n2)CC1 | 22 | 410
CN(C)CC(=O)N1CCC(C(=O)Nc2nccc(/C(C#N)=C3\NC(C(C)(C)C)=CS3)n2)CC1 | 30 | 458
CC(C)(C)C1=CS/C(=C(\C#N)c2ccnc(NCCCCN3C(=O)CCC3=O)n2)N1 | 168 | 705
O=C1NC(=O)C(c2ccccc2[N+](=O)[O-])=C1Nc1ccc(O)c(Cl)c1 | 1000 | 740
N#CCCc1ccc2c(c1)-c1[nH]c3ccc([N+](=O)[O-])cc3c1CC(=O)N2 [ALSTERPAULLONE 2] | 336 | 150
COc1ccc2c(c1)/C(=C/c1cnc[nH]1)C(=O)N2 [SU-9516] | 352 | 180
